According to patent US6355799B1, “Substituted benzene compounds, process for their preparation, and herbicidal and defoliant compositions containing them” (ISK Americas Incorporated, priority 1997, dated 2002):

Assays:
Assay type in all cases: in vivo
[1] = test system: velvetleaf (Abutilon theophrasti, ABUTH); assay: Post-emerge test, greenhouse herbicide activity screening; conditions: post-emerge, 14 days after application, rating scale 0-100
From the text: (§1) A standard greenhouse herbicide activity screening system was used to evaluate the herbicidal efficacy and crop safety of these test compounds. Seven broadleaf weed species including redroot pigweed (Amaranthus retroflexus, AMARE, velvetleaf (Abutilon theophrasti, ABUTH), sicklepod (Cassia obtusifolia, CASOB), ivyleaf morningglory (Ipomoea hederacea, IPOHE), lambsquarters (Chenopodium album, CHEAL), common ragweed (Ambrosia artemisizfolia L., AMBEL), and cocklebur (Xanthium strumarium, XANST) were used as test species. Four grass weed species including green foxtail (Setaria viridis, SETVI), barnyardgrass (Echinochloa crus-galli, ECHCG), johnsongrass (Sorghum halepense, SORHA), and large crabgrass (Digitaria sanguinalis, DIGSA) were also used. In addition, three crop species, field corn (Zea mays L., var. Dekalb 535, CORN), soybean (Glycine max L., var. Pella 86, SOY), and is upland rice (Oryza sp., var. Tebonnet, RICE) were included.
(§2) All plants were grown in 10 cm square plastic pots which were filled with a sandy loam soil mix. For pre-emerge tests, seeds were planted one day prior to application of the test compounds. For post-emerge tests, seeds were planted 8-21 days prior to the test to allow emergence and good foliage development prior to application of the test substances. At the time of the post-emerge application, plants of all species were usually at the 2-3 leaf stage of development.
(§3) All test compounds Were dissolved in acetone and applied to the test units in a volume of 187 l /ha. Test materials were applied at rates ranging from 15 g ai/ha to 1000 g ai/ha using a track sprayer equipped with a TJ8001E even flow flat fan spray nozzle. Plants were arranged on a shelf so that the top of the canopy (post-emerge) or top of the soil surface (pre-emerge) was 40-45 cm below the nozzle. Pressurized air was used to force the test solution through the nozzle as it was mechanically advanced (via electrically driven chain drive) over the top of all test plants/pots. This application simulates a typical commercial field herbicide application.
(§4) In the post-emerge test, a commercial non-ionic surfactant was also included (0.25% v/v) to enhance wetting of the leaf surfaces of target plants. Immediately after application, test units of the pre-emerge applications were watered at the soil surface to incorporate the test materials. Subsequently, these test units were bottom-watered. Post-emerge test units were always bottom-watered.
(§5) At 14 days after application of the test materials, phytotoxicity ratings were recorded. A rating scale of 0-100 was used as previously described in Research Methods in Weed Science, 2nd edition, B. Truelove, Ed., Southern Weed Science Society, Auburn University, Auburn, Ala. 1977. Briefly, “0” corresponds to no damage and “100” corresponds to complete death of all plants in the test unit. This scale was used both to determine efficacy against weed species and damage to crop species. Herbicide activity data for various compounds of this invention, which are shown by compound No. in Tables 1-8, are shown in Tables 11 and 12.

[2] = test system: lambsquarters (Chenopodium album, CHEAL); assay: as above; conditions: post-emerge, 14 days after application, rating scale 0-100
From the text: as §1, §2, §3, §4, §5

[3] = test system: sicklepod (Cassia obtusifolia, CASOB); assay: as above; conditions: post-emerge, 14 days after application, rating scale 0-100
From the text: as §1, §2, §3, §4, §5

[4] = test system: large crabgrass (Digitaria sanguinalis, DIGSA); assay: as above; conditions: post-emerge, 14 days after application, rating scale 0-100
From the text: as §1, §2, §3, §4, §5

[5] = test system: redroot pigweed (Amaranthus retroflexus, AMARE); assay: as above; conditions: post-emerge, 14 days after application
From the text: as §1, §2, §3, §4, §5

[6] = test system: ivyleaf morningglory (Ipomoea hederacea, IPOHE); assay: as above; conditions: post-emerge, 14 days after application, rating scale 0-100
From the text: as §1, §2, §3, §4, §5

[7] = test system: green foxtail (Setaria viridis, SETVI); assay: as above; conditions: post-emerge, 14 days after application, rating scale 0-100
From the text: as §1, §2, §3, §4, §5

[8] = test system: barnyardgrass (Echinochloa crus-galli, ECHCG); assay: as above; conditions: post-emerge, 14 days after application, rating scale 0-100
From the text: as §1, §2, §3, §4, §5

[9] = test system: redroot pigweed (Amaranthus retroflexus, AMARE); assay: Pre-emerge test, greenhouse herbicide activity screening; conditions: pre-emerge, 14 days after application, rating scale 0-100
Outline: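 Sandy loam pots; pre-emerge: sown 1 d pre-spray, surface-watered after, then bottom-watered. Post-emerge: sown 8–21 d before, 2–3 leaf stage, + 0.25% v/v NIS, bottom-watered. Acetone, 187 l/ha track spray, 15–1000 g ai/ha. 0–100 injury score, day 14.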

[10] = test system: upland rice (Oryza sp., var. Tebonnet, RICE); assay: Pre-emerge test, crop safety; conditions: pre-emerge, 14 days after application, rating scale 0-100
Outline: (§6)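 Compounds in acetone were track-sprayed at 15-1000 g ai/ha (187 l/ha) on sandy loam pots: pre-emerge one day after seeding, post-emerge at 2-3 leaf stage with 0.25% v/v non-ionic surfactant. Phytotoxicity was rated 14 days later on a 0 (no damage) to 100 (complete death) scale.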

[11] = test system: field corn (Zea mays L., var. Dekalb 535, CORN); assay: Pre-emerge test, crop safety; conditions: pre-emerge, 14 days after application, rating scale 0-100
Outline: as §6

[12] = test system: velvetleaf (Abutilon theophrasti, ABUTH); assay: Pre-emerge test, greenhouse herbicide activity screening; conditions: pre-emerge, 14 days after application, rating scale 0-100
From the text: as §1, §2, §3, §4, §5

[13] = test system: lambsquarters (Chenopodium album, CHEAL); assay: as above; conditions: pre-emerge, 14 days after application, rating scale 0-100
From the text: as §1, §2, §3, §4, §5

[14] = test system: sicklepod (Cassia obtusifolia, CASOB); assay: as above; conditions: pre-emerge, 14 days after application, rating scale 0-100
From the text: as §1, §2, §3, §4, §5

[15] = test system: large crabgrass (Digitaria sanguinalis, DIGSA); assay: as above; conditions: pre-emerge, 14 days after application, rating scale 0-100
From the text: as §1, §2, §3, §4, §5

[16] = test system: ivyleaf morningglory (Ipomoea hederacea, IPOHE); assay: as above; conditions: pre-emerge, 14 days after application, rating scale 0-100
From the text: as §1, §2, §3, §4, §5

[17] = test system: green foxtail (Setaria viridis, SETVI); assay: as above; conditions: pre-emerge, 14 days after application, rating scale 0-100
From the text: as §1, §2, §3, §4, §5

[18] = test system: barnyardgrass (Echinochloa crus-galli, ECHCG); assay: as above; conditions: pre-emerge, 14 days after application, rating scale 0-100
From the text: as §1, §2, §3, §4, §5

[19] = test system: upland rice (Oryza sp., var. Tebonnet, RICE); assay: Post-emerge test, crop safety; conditions: post-emerge, 14 days after application, rating scale 0-100
Outline: (§7)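 Each test used a mechanized track sprayer delivering 187 l/ha of acetone solution at 15–1000 g ai/ha. Post-emerge foliage at 2–3 leaves was treated with added 0.25% v/v non-ionic surfactant and bottom-watered only. Injury was assessed on day 14, where 100 means total kill.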

[20] = test system: field corn (Zea mays L., var. Dekalb 535, CORN); assay: Post-emerge test, crop safety; conditions: post-emerge, 14 days after application, rating scale 0-100
Outline: as §7

COc1c(Cl)cc(F)c(-n2c(=O)cc(C(F)(F)F)n(C)c2=O)c1NNC(=O)c1ccc2ccccc2c1 [15-5]
70: Post-emerge Herbicidal Activity DIGSA (phytotoxicity rating) ([4]; 250 g ai/ha) | Post-emerge Herbicidal Activity AMARE (phytotoxicity rating) ([5]; 63 g ai/ha, rating scale 0-100 (0 no damage, 100 complete death)) | phytotoxicity rating RICE ([10]; 63 g ai/ha) | phytotoxicity rating ECHCG ([18]; 63 g ai/ha) | Post-emerge Herbicidal Activity CORN (crop damage rating) ([20]; 63 g ai/ha)
100: Post-emerge Herbicidal Activity ABUTH (phytotoxicity rating) ([1]; 63 g ai/ha) | Post-emerge Herbicidal Activity ABUTH (phytotoxicity rating) ([1]; 250 g ai/ha) | Post-emerge Herbicidal Activity CHEAL (phytotoxicity rating) ([2]; 63 g ai/ha) | Post-emerge Herbicidal Activity CHEAL (phytotoxicity rating) ([2]; 250 g ai/ha) | Post-emerge Herbicidal Activity AMARE (phytotoxicity rating) ([5]; 250 g ai/ha, rating scale 0-100) | Post-emerge Herbicidal Activity IPOHE (phytotoxicity rating) ([6]; 250 g ai/ha) | phytotoxicity rating AMARE ([9]; 63 g ai/ha) | phytotoxicity rating AMARE ([9]; 250 g ai/ha) | phytotoxicity rating ABUTH ([12]; 63 g ai/ha) | phytotoxicity rating ABUTH ([12]; 250 g ai/ha) | phytotoxicity rating CHEAL ([13]; 63 g ai/ha) | phytotoxicity rating CHEAL ([13]; 250 g ai/ha) | phytotoxicity rating CASOB ([14]; 63 g ai/ha) | phytotoxicity rating CASOB ([14]; 250 g ai/ha) | phytotoxicity rating DIGSA ([15]; 63 g ai/ha) | phytotoxicity rating DIGSA ([15]; 250 g ai/ha) | phytotoxicity rating IPOHE ([16]; 63 g ai/ha) | phytotoxicity rating IPOHE ([16]; 250 g ai/ha) | phytotoxicity rating SETVI ([17]; 63 g ai/ha) | phytotoxicity rating SETVI ([17]; 250 g ai/ha)
80: Post-emerge Herbicidal Activity CASOB (phytotoxicity rating) ([3]; 250 g ai/ha) | Post-emerge Herbicidal Activity SETVI (phytotoxicity rating) ([7]; 250 g ai/ha) | phytotoxicity rating CORN ([11]; 63 g ai/ha)
30: Post-emerge Herbicidal Activity DIGSA (phytotoxicity rating) ([4]; 63 g ai/ha)
99: phytotoxicity rating RICE ([10]; 250 g ai/ha) | phytotoxicity rating CORN ([11]; 250 g ai/ha) | phytotoxicity rating ECHCG ([18]; 250 g ai/ha)
60: Post-emerge Herbicidal Activity RICE (crop damage rating) ([19]; 63 g ai/ha)
90: Post-emerge Herbicidal Activity IPOHE (phytotoxicity rating) ([6]; 63 g ai/ha) | Post-emerge Herbicidal Activity ECHCG (phytotoxicity rating) ([8]; 250 g ai/ha) | Post-emerge Herbicidal Activity RICE (crop damage rating) ([19]; 250 g ai/ha) | Post-emerge Herbicidal Activity CORN (crop damage rating) ([20]; 250 g ai/ha)
40: Post-emerge Herbicidal Activity CASOB (phytotoxicity rating) ([3]; 63 g ai/ha) | Post-emerge Herbicidal Activity SETVI (phytotoxicity rating) ([7]; 63 g ai/ha) | Post-emerge Herbicidal Activity ECHCG (phytotoxicity rating) ([8]; 63 g ai/ha)
